According to ChEMBL document CHEMBL4028806, “Modulators of Sphingosine-1-phosphate Pathway Biology: Recent Advances of Sphingosine-1-phosphate Receptor 1 (S1P1) Agonists and Future Perspectives” (J Med Chem, 2017):

What was measured:
[1] = molecular target: T1, Sphingosine 1-phosphate receptor 3 (Homo sapiens, UniProt Q99500); test: Displacement of [33P]-S1P from S1P3 receptor (unknown origin) expressed in CHO cell membranes
[2] = molecular target: T2, Sphingosine 1-phosphate receptor 1 (Homo sapiens, UniProt P21453); test: Displacement of [33P]-S1P from S1P1 receptor (unknown origin) expressed in CHO cell membranes
T2 sequence (P21453 whole entry): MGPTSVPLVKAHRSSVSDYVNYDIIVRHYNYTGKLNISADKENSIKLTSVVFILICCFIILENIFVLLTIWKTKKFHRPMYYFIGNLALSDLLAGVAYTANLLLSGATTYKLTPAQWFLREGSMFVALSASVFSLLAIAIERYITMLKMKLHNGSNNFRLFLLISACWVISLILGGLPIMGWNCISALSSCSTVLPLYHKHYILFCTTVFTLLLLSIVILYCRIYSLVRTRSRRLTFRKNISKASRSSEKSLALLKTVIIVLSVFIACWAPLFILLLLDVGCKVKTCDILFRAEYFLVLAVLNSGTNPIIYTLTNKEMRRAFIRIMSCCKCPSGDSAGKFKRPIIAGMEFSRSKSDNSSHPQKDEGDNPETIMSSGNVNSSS

Mus musculus [3] = test: Reduction in peripheral lymphocyte level in mouse administered iv measured 3 hrs post dose; format: functional
[4] = Half life in po dosed Sprague-Dawley rat; format: ADME, organism-based; conditions: in vivo
[5] = Half life in iv dosed Sprague-Dawley rat; format: ADME, organism-based; conditions: in vivo
Trachea [6] = test: Induction of tracheal constriction in Wistar rat at 1 uM
Trachea [7] = test: Induction of tracheal constriction in Wistar rat at 10 uM
Mus musculus [8] = test: Reduction in peripheral lymphocyte level in Swiss mouse at 10 mg/kg, po measured 24 hrs post dose; format: functional; design: scale not given: the % may be the effect or the level left
Rattus norvegicus = test: Reduction in peripheral lymphocyte level in rat at 10 mg/kg, po measured 6 hrs post dose; format: functional; design: scale not given: the % may be the effect or the level left
[9] = molecular target: T2, Sphingosine 1-phosphate receptor 1; test: Displacement of [33P]-S1P from human S1P1 receptor expressed in CHO cell membranes
[10] = molecular target: T1, Sphingosine 1-phosphate receptor 3; test: Displacement of [33P]-S1P from human S1P3 receptor expressed in CHO cell membranes
Mus musculus [11] = test: Immunosuppressive activity in BALB/c mouse assessed as reduction in peripheral blood lymphocytes at 30 mg/kg, ip measured 4 days post dose; format: functional; design: scale not given: the % may be the effect or the level left
[12] = molecular target: T2, Sphingosine 1-phosphate receptor 1; test: Displacement of [33P]-S1P from S1P1 receptor (unknown origin) expressed in CHOK1 cells after 60 mins by microbeta scintillation proximity assay; format: cell-based
[13] = molecular target: T1, Sphingosine 1-phosphate receptor 3; test: Displacement of [33P]-S1P from S1P3 receptor (unknown origin) expressed in CHOK1 cells after 60 mins by microbeta scintillation proximity assay; format: cell-based
[14] = molecular target: T2, Sphingosine 1-phosphate receptor 1; test: Agonist activity at human S1P1 receptor expressed in CHO cell membranes after 45 mins by [35S] GTPgammaS binding based scintillation counting analysis; format: functional
[15] = molecular target: T1, Sphingosine 1-phosphate receptor 3; test: Agonist activity at human S1P3 receptor expressed in CHO cell membranes after 45 mins by [35S] GTPgammaS binding based scintillation counting analysis; format: functional
Mus musculus [16] = test: Reduction in peripheral lymphocyte level in mouse administered po measured 3 hrs post dose; format: functional
[17] = Oral bioavailability in mouse; format: ADME, organism-based; conditions: in vivo
Homo sapiens [18] = species: Homo sapiens; test: Toxicity in human assessed as reduction in heart rate at 1.25 mg measured for 2 days; conditions: in vivo, 48 h
Homo sapiens [19] = species: Homo sapiens; test: Toxicity in human assessed as reduction in heart rate measured every day for 9 days; conditions: 216 h
Homo sapiens [20] = species: Homo sapiens; test: Toxicity in human assessed as reduction in heart rate at 10 mg measured on day 1; conditions: in vivo
Homo sapiens [21] = species: Homo sapiens; test: Toxicity in human assessed as reduction in heart rate at 10 mg measured 2 hrs post dose; conditions: in vivo

T1 sequence (Q99500 whole entry): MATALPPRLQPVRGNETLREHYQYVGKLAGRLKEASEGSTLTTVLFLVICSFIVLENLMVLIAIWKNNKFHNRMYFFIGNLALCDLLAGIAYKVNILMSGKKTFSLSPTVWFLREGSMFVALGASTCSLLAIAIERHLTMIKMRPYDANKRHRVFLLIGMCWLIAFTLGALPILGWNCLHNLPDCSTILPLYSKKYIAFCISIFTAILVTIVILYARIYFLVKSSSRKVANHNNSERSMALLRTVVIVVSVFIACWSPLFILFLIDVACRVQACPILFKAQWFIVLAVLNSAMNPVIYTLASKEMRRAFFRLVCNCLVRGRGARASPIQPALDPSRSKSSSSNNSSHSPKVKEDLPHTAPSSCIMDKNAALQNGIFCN

Compound `CCCCCCCCc1ccc(CCC(N)(CO)CCP(=O)(O)O)cc1` (centres undefined) has an IC50 [1] of 7 nM, an IC50 [2] of 6 nM and an ED50 (Mus musculus [3]) of 2.35 mg/kg.
With `CCCCCCCCc1ccc(CC[C@@H](N)C[C@H](O)P(=O)(O)O)cc1` the ED50 (Mus musculus [3]) was 0.15 mg/kg.
Work on `CC(C)Cc1ccc(-c2nc(-c3ccc(CN4CC(C(=O)O)C4)cc3)no2)cc1` yielded a half-life [4] of 11 h and a half-life [5] of 9 h.
Compound `CCc1cc(-c2noc(-c3cc(CC(C)C)nc(OC)c3)n2)cc(C)c1OC[C@@H](O)CNC(=O)CO` has an Activity (Trachea [6]) of 133%.
For `CCc1cc(-c2noc(-c3cc(OC)nc(C(CC)CC)c3)n2)cc(C)c1OC[C@@H](O)CNC(=O)CO`, the Activity (Trachea [6]) was under 5% and the Activity (Trachea [7]) was 100%.
With `O=C(O)C1(C(=O)O)CC(NCc2ccc(-c3noc(-c4ccc(-c5ccccc5)c(F)c4)n3)cc2)C1` the Activity (Mus musculus [8]) was 86%.
Work on `CCc1cc(-c2noc(-c3cc(OC)nc(C(CC)CC)c3)n2)cc(C)c1OC[C@@H](O)CO` yielded an Activity (Trachea [6]) of under 5% and an Activity (Trachea [7]) of 24%.
Compound `CCc1cc(-c2nnc(-c3sc(C)c4c3C[C@@H]3[C@H]4C3(C)C)o2)cc(C)n1` has an Activity (Rattus norvegicus) of 77%.
Compound `CCCCCCCCc1ccc(CNCCCC(=O)O)cc1` has an IC50 [9] of 7.7 nM and an IC50 [10] of 1200 nM.
`CCCCCCCCc1ccc2c(c1)CC(N)(CO)CC2` (centres undefined) showed an Activity (Mus musculus [11]) of 64%.
`COCc1cc(-c2nc(-c3cccc(OCC(=O)O)c3)no2)ccc1-c1ccccc1C` showed a Ki [12] of 0.8 nM and a Ki [13] of 1040 nM.
Work on `CCCCCCCCc1ccc(CNCCCP(C)(=O)O)cc1` yielded an IC50 [9] of 12 nM and an IC50 [10] of 100 nM.
For `CCc1cc(-c2noc(-c3cc(CC(C)C)nc(OC)c3)n2)cc(C)c1OC[C@@H](O)CO`, the Activity (Trachea [6]) was under 5% and the Activity (Trachea [7]) was 124%.
For `N#CC1(NC(=O)[C@@H](O)c2ccc(-c3noc(-c4onc(-c5ccccc5)c4C(F)(F)F)n3)cc2)CC1`, the EC50 [14] was 15 nM and the EC50 [15] was over 31000 nM.
With `COCc1cc(-c2nc(-c3ccc(-c4ccc(C(=O)O)c(F)c4)cc3)no2)ccc1-c1ccccc1C` the Ki [12] was 2.9 nM and the Ki [13] was 2200 nM.
With `CCCCCCCCc1ccc(CN2CC(C(=O)O)C2)cc1` the IC50 [9] was 18 nM, the IC50 [10] was 4900 nM and the ED50 (Mus musculus [16]) was 5.2 mg/kg. The bioavailability [17] was over 70%.
With `CCCCCCCCc1ccc(CC[C@@H](N)CCP(=O)(O)O)cc1` the IC50 [9] was 8.4 nM and the IC50 [10] was 280 nM.
Compound `CCCCCCCCc1ccc(CCC(N)COP(=O)(O)O)cc1` (centres undefined) has an ED50 (Mus musculus [3]) of 0.06 mg/kg.
Work on `CCCCCCCCc1ccc(CCC(N)(CO)CO)cc1` [FINGOLIMOD] yielded an Activity (Homo sapiens [18]) of 8 to 11 bpm and an Activity (Homo sapiens [19]) of 1 to 2 bpm.
With `CC(C)Cc1ccc(-c2nc(-c3ccc(CN4CC(C(=O)O)C4)c(F)c3)no2)cc1` [ICANBELIMOD] the half-life [4] was 5.5 h and the half-life [5] was 5.5 h.
Work on `CCC/N=C1\S/C(=C\c2ccc(OC[C@H](O)CO)c(Cl)c2)C(=O)N1c1ccccc1C` [PONESIMOD] yielded an Activity (Homo sapiens [20]) of 10 to 12 bpm.
Work on `CCc1cc(/C(C)=N/OCc2ccc(C3CCCCC3)c(C(F)(F)F)c2)ccc1CN1CC(C(=O)O)C1` [SIPONIMOD] yielded an Activity (Homo sapiens [21]) of 16 bpm.
